Results on five compounds are retold here after patent publication US20200291391A1, “CROSS-LINKED EPITOPES AND METHODS OF USE THEREOF” (Indi Molecular, Inc., priority 2019, published 2020).

One test deals with CD8+SupT1 cells. As to the kind of experiment: Flow cytometry binding to CD8+ cells. The format is cell-based. The settings on record: for selective binding to CD8+ cells in flow cytometry: SupT1 (CD8+) vs Jurkat (CD8-) cells, FIG. 11; for binding to CD8+SupT1 cells by flow cytometry: with the 1kPEG linker. The method, then: (§1) Three hits were left after this screening (Table 3). These hits were assessed in solid phase ELISA and in flow cytometry experiments.
(§2) Binding of krsah (SEQ ID NO:27) was detected on both CD8+SupT1 cells and CD8−Jurkat cells. The mean fluorescence intensity ratio to each of the ligands tfpkk (SEQ ID NO:21), krsah (SEQ ID NO:27), and snprk (SEQ ID NO:28) was determined (Table 4). The mean fluorescence intensity ratio of different amounts of the ligand tfpkk (SEQ ID NO:21) was determined (Table 5).
(§3) Binding of Biotin-1kPEG-tfpkk (SEQ ID NO:21) to CD8+SupT1 cells or CD8−Jurkat was performed at room temperature (RT) or 4° C.
(§4) Concentration of biotin-1kPEG-tfpkk (SEQ ID NO:21) and -nfyrr (SEQ ID NO:32) was titrated on SupT1 and Jurkat cells. The biotin-1kPEG-ligands were incubated with CD8+SupT1 cells and CD8−Jurkat cells at a concentrations of […].
For orientation: Flow cytometry measures light scatter and fluorescence of single cells or particles in a stream.

A further test deals with T1, epitope B2 (Homo sapiens, UniProt P01732, L47X).
T1 construct: host or cells: synthetic peptide (per the listing)
In words: Epitope bound by ligand. Type of test: binding. The protocol:
Epitope B2 ligand tfpkk (SEQ ID NO:21) and the three hit ligands selected against CD8 epitopes A2, B2, H, and J were tested for binding to CD8+ and CD8− cells by flow cytometry.

The target in test [1] is T2, CD8 epitopes A, B, C, D, and E (Homo sapiens, UniProt P01732, M123X).
T2 construct: host or cells: synthetic peptide (per the listing)
In words: Bead-coupled alkyne peptide screened with azide- and biotin-containing epitopes, alkaline phosphatase-streptavidin development. Type of test: binding. The settings on record: D, and E tested. The method, then: The epitope E ligand used in the biligand is tfpkk (SEQ ID NO:21). It was determined that tfpkk (SEQ ID NO:21) binds to epitope E by screening an alkyne-containing tfpkk peptide (SEQ ID NO:21) coupled to a bead (FIG. 8) with azide- and biotin-containing epitopes A, B, C, D, and E (FIG. 9). The epitopes used in the screen were: Epitope A (a.a. 1-10): Biotin-PEG3-[Az4]-SQFRVSPLDR (SEQ ID NO:22); Epitope B (a.a. 24-32): Biotin-PEG3-[Az4]-VLLSNPTSG (SEQ ID NO:23); Epitope C (a.a. 58-77): Biotin-PEG3-KAAEGLDTQ-[Az4]-FSGKRLGDTF (SEQ ID NO:24); Epitope D (a.a. 68-83): Biotin-PEG3-FSGKRL-[Az4]-DTFVLTLSD (SEQ ID NO:25); Epitope E (a.a. 95-110): Biotin-PEG3-SALSNSI-[Az4]-YFSHFVPV (SEQ ID NO:26).
This is in agreement with docking calculations of binding affinities of the epitopes to tfpkk (SEQ ID NO:21) and a control peptide (krsah; SEQ ID NO:27) (Table 2).

For another test, the system named is CD8−Jurkat cells. As to the kind of experiment: Flow cytometry binding to CD8- cells. The format is cell-based. Particulars: with the 1kPEG linker. The method, then:
as §1, §2, §3, §4

“Also recorded” adds a separate entry of the source. Where a SMILES comes first, the peptide text is derived from it. Bridges are numbered along the chain shown (N, C = ends). Triazole bridges read from a SMILES are 1,4-linked. Where no end group is shown, it is not given here. [ ]: non-standard residue; d: D form. Lys(N3) = [N-]=[N+]=NCCCC[C@H](N)C(=O)O; Pra = C#CC[C@H](N)C(=O)O

Turning to “herlk: CD8 ligand hit of four epitope cocktail screening ([dH][dE][dR][dL][dK])”, in the test on CD8+SupT1 cells, the “selective binding to CD8+ cells in flow cytometry” value is listed as “weakly selective binding to CD8+ cells”.

Regarding `C[C@H](O)[C@H]1NC(=O)[C@@H](Cc2ccc(O)cc2)NC(=O)[C@@H](Cc2c[nH]cn2)NC(=O)[C@@H](CCCCN)NC(=O)[C@@H](N)Cc2cn(nn2)CCCC[C@@H](C(N)=O)NC(=O)[C@@H](CC(N)=O)NC1=O` [khytn] (H-[Pra][dK][dH][dY][dT][dN][Lys(N3)]-NH2; triazole 1-7; N-terminus assumed), on epitope B2, the epitope bound result is on record as “bind to epitope B2”.

As to “nsprw: CD8 ligand hit of four epitope cocktail screening ([dN][dS][dP][dR][dW])”, in the test with CD8+SupT1 cells, the “selective binding to CD8+ cells in flow cytometry” value is “weak (and weakly selective) binding to CD8+ cells”.

“tfpkk: CD8 ligand peptide; epitope E ligand used in the biligand ([dT][dF][dP][dK][dK])”: in test [1], the “color development of beads with alkaline phosphatase-linked streptavidin” value is given as “color only when epitope E was used”. For the same compound, the “binding to CD8−Jurkat cells by flow cytometry” value with CD8−Jurkat cells was “little binding”. Moreover, the “binding to CD8+SupT1 cells by flow cytometry” value in the test with CD8+SupT1 cells was “observed”. In the test with epitope B2, the epitope bound entry is listed as “bind to epitope B2”.

As to “krsah: CD8 ligand hit; control peptide in docking ([dK][dR][dS][dA][dH])”, the “binding to CD8−Jurkat cells by flow cytometry” value in the test on CD8−Jurkat cells is given as “detected; also recorded: also observed”. For the same compound, the “binding to CD8+SupT1 cells by flow cytometry” value in the test with CD8+SupT1 cells is “can be detected”.
